{"source": "ChEMBL document CHEMBL2057120", "about": "“Chromatin structure determines accessibility of a hairpin polyamide-chlorambucil conjugate at histone H4 genes in pancreatic cancer cells” (Bioorg Med Chem Lett, 2012)", "key": {"[1]": {"tested_on": "MIA PaCa-2", "assay": "Downregulation of histone H4B mRNA expression in human MIAPaCa2 cells at 50 uM after 72 hrs by quantitative RT-PCR analysis", "type": "functional, cell-based"}, "[2]": {"tested_on": "HEK293", "assay": "Downregulation of histone H4L mRNA expression in human HEK293 cells at 250 uM after 72 hrs by quantitative RT-PCR analysis", "type": "ADME, cell-based", "conditions": "hek293, 72 h"}, "[3]": {"tested_on": "MIA PaCa-2", "assay": "Growth inhibition of human MIAPaCa2 cells after 6 days by MTS assay", "type": "functional", "conditions": "MIA PaCa-2, 144 h"}, "[4]": {"tested_on": "MIA PaCa-2", "assay": "Downregulation of histone H4E mRNA expression in human MIAPaCa2 cells at 50 uM after 72 hrs by quantitative RT-PCR analysis", "type": "functional, cell-based"}, "[5]": {"tested_on": "HEK293", "assay": "Downregulation of histone H4E mRNA expression in human HEK293 cells at 250 uM after 72 hrs by quantitative RT-PCR analysis", "type": "ADME, cell-based", "conditions": "hek293, 72 h"}, "[6]": {"tested_on": "HEK293", "assay": "Downregulation of histone H4B mRNA expression in human HEK293 cells at 250 uM after 72 hrs by quantitative RT-PCR analysis", "type": "ADME, cell-based", "conditions": "hek293, 72 h"}, "[7]": {"tested_on": "MIA PaCa-2", "assay": "Downregulation of histone 4H4 mRNA expression in human MIAPaCa2 cells at 50 uM after 72 hrs by quantitative RT-PCR analysis", "type": "functional, cell-based"}, "[8]": {"tested_on": "HEK293", "assay": "Downregulation of histone HJK mRNA expression in human HEK293 cells at 250 uM after 72 hrs by quantitative RT-PCR analysis", "type": "ADME, cell-based", "conditions": "hek293, 72 h"}, "[9]": {"tested_on": "HEK293", "assay": "Downregulation of histone H4A mRNA expression in human HEK293 cells at 250 uM after 72 hrs by quantitative RT-PCR analysis", "type": "ADME, cell-based", "conditions": "hek293, 72 h"}, "[10]": {"tested_on": "MIA PaCa-2", "assay": "Downregulation of histone H4A mRNA expression in human MIAPaCa2 cells at 50 uM after 72 hrs by quantitative RT-PCR analysis", "type": "functional, cell-based"}, "[11]": {"tested_on": "HEK293", "assay": "Downregulation of histone H4C mRNA expression in human HEK293 cells at 250 uM after 72 hrs by quantitative RT-PCR analysis", "type": "ADME, cell-based", "conditions": "hek293, 72 h"}, "[12]": {"tested_on": "MIA PaCa-2", "assay": "Downregulation of histone H4AB mRNA expression in human MIAPaCa2 cells at 50 uM after 72 hrs by quantitative RT-PCR analysis", "type": "functional, cell-based"}, "[13]": {"tested_on": "MIA PaCa-2", "assay": "Downregulation of histone HJK mRNA expression in human MIAPaCa2 cells at 50 uM after 72 hrs by quantitative RT-PCR analysis", "type": "functional, cell-based"}, "[14]": {"tested_on": "HEK293", "assay": "Downregulation of histone H4AB mRNA expression in human HEK293 cells at 250 uM after 72 hrs by quantitative RT-PCR analysis", "type": "ADME, cell-based", "conditions": "hek293, 72 h"}, "[15]": {"assay": "Drug uptake in human HEK293 cell nucleus using BODIPY labeled compound at 500 uM after 16 hrs by […] microscopic analysis", "type": "ADME, cell-based", "conditions": "hek293, 16 h"}, "[16]": {"tested_on": "MIA PaCa-2", "assay": "Downregulation of histone H4C mRNA expression in human MIAPaCa2 cells at 50 uM after 72 hrs by quantitative RT-PCR analysis", "type": "functional, cell-based"}, "[17]": {"tested_on": "MIA PaCa-2", "assay": "Downregulation of histone H4L mRNA expression in human MIAPaCa2 cells at 50 uM after 72 hrs by quantitative RT-PCR analysis", "type": "functional, cell-based"}, "[18]": {"tested_on": "HEK293", "assay": "Downregulation of histone H4D mRNA expression in human HEK293 cells at 250 uM after 72 hrs by quantitative RT-PCR analysis", "type": "ADME, cell-based", "conditions": "hek293, 72 h"}, "[19]": {"tested_on": "MIA PaCa-2", "assay": "Downregulation of histone H4H mRNA expression in human MIAPaCa2 cells at 50 uM after 72 hrs by quantitative RT-PCR analysis", "type": "functional, cell-based"}, "[20]": {"tested_on": "MIA PaCa-2", "assay": "Downregulation of histone H4D mRNA expression in human MIAPaCa2 cells at 50 uM after 72 hrs by quantitative RT-PCR analysis", "type": "functional, cell-based"}, "[21]": {"tested_on": "HEK293", "assay": "Selectivity ratio of GI50 for human HEK293 cells to GI50 for human MIAPaCa2 cells"}, "[22]": {"tested_on": "HEK293", "assay": "Downregulation of histone 4H4 mRNA expression in human HEK293 cells at 250 uM after 72 hrs by quantitative RT-PCR analysis", "type": "ADME, cell-based", "conditions": "hek293, 72 h"}, "[23]": {"assay": "Growth inhibition of human HEK293 cells after 6 days by MTS assay", "type": "cell-based"}, "[24]": {"tested_on": "HEK293", "assay": "Downregulation of histone H4H mRNA expression in human HEK293 cells at 250 uM after 72 hrs by quantitative RT-PCR analysis", "type": "ADME, cell-based", "conditions": "hek293, 72 h"}}, "note": "Calls of active or inactive are those of the source. No cut-off for these calls is given here."}
{"smiles": "CN(C)CCCNC(=O)CCNC(=O)c1cc(NC(=O)c2cc(NC(=O)c3cc(NC(=O)c4cc(NC(=O)[C@@H](CCNC(=O)CCCc5ccc(N(CCCl)CCCl)cc5)NC(=O)c5nc(NC(=O)CCNC(=O)c6nc(NC(=O)c7nccn7C)cn6C)cn5C)cn4C)cn3C)cn2C)cn1C", "values": [{"measurement": "Activity", "setting": "[1]", "value": "Active"}, {"measurement": "Activity", "setting": "[2]", "value": "Non-toxic"}, {"measurement": "GI50", "setting": "[3]", "value": 16, "unit": "nM"}, {"measurement": "Activity", "setting": "[4]", "value": "Active"}, {"measurement": "Activity", "setting": "[5]", "value": "Non-toxic"}, {"measurement": "Activity", "setting": "[6]", "value": "Non-toxic"}, {"measurement": "Activity", "setting": "[7]", "value": "Active"}, {"measurement": "Activity", "setting": "[8]", "value": "Non-toxic"}, {"measurement": "Activity", "setting": "[9]", "value": "Non-toxic"}, {"measurement": "Activity", "setting": "[10]", "value": "Active"}, {"measurement": "Activity", "setting": "[11]", "value": "Non-toxic"}, {"measurement": "Activity", "setting": "[12]", "value": "Active"}, {"measurement": "Activity", "setting": "[13]", "value": "Active"}, {"measurement": "Activity", "setting": "[14]", "value": "Non-toxic"}, {"measurement": "Drug uptake", "setting": "[15]", "value": "Active"}, {"measurement": "Activity", "setting": "[16]", "value": "Active"}, {"measurement": "Activity", "setting": "[17]", "value": "Active"}, {"measurement": "Activity", "setting": "[18]", "value": "Non-toxic"}, {"measurement": "Activity", "setting": "[19]", "value": "Active"}, {"measurement": "Activity", "setting": "[20]", "value": "Active"}, {"measurement": "RatioGI50", "setting": "[21]", "value": 25}, {"measurement": "Activity", "setting": "[22]", "value": "Non-toxic"}, {"measurement": "GI50 at 144 h", "setting": "[23]", "value": 400, "unit": "nM"}, {"measurement": "Activity", "setting": "[24]", "value": "Non-toxic"}]}
